Reference: PMC3161154 (Journal of the American Chemical Society, 2011)

Experiments:
lymphocyte kinase = conditions: read-out: IC50 lymphocyte kinase; cited from earlier work
[1] = biological target: phosphatidylinositol 3-kinase; conditions: read-out: IC50 phosphatidylinositol 3-kinase; cited from earlier work
mTOR = mTOR (Homo sapiens, UniProt P42345); assay: mTor kinase inhibition; format: biochemical; conditions: read-out: mTOR (nM), mTor kinase inhibition
LNCap = assay: cytotoxicity, LNCap; format: cell-based; conditions: read-out: LNCap (nM), cytotoxicity
MDA-468 = assay: cytotoxicity, MDA-468; format: cell-based; conditions: read-out: MDA-468 (nM), cytotoxicity

Compound | IC50 (lymphocyte kinase) [nM] | IC50 [1] [nM] | IC50 (mTOR) [nM] | IC50 (LNCap) [nM] | IC50 (MDA-468) [nM]
CO/C=C/C(=O)c1cc2cnc3c(=N)cc(NC(C)=O)c([nH]1)c23 [Compound 1, lymphostin] | 50 | 1 | 1.7 | 38 | 14
CCC(=O)Nc1cc(=N)c2ncc3cc(C(=O)C=COC)[nH]c1c32 [Compound 4, neolymphostin B] |  |  | 1.5 | 48 | 85
CC[C@H](C)C(=O)Nc1cc(=N)c2ncc3cc(C(=O)C=COC)[nH]c1c32 [Compound 5, neolymphostin C] |  |  | 1.8 | 230 | 700
COC=CC(=O)c1cc2cnc3c(=N)cc(NC(=O)CC(C)C)c([nH]1)c23 [Compound 6, neolymphostin D] |  |  | 1.8 | 230 | 700
neolymphostin A [Compound 3] |  |  | 0.8 | 22 | 58
